Results published in US4382943A, “Anti-allergic aryl ether derivatives” (Boehringer Mannheim GmbH, priority 1980, dated 1983).
Structures can show the parent of a compound that is named as a salt.

Test system: antigen induced bronchospasm in passively sensitized guinea pigs
Experiment: Inhibition of antigen induced bronchospasm (Br Sp) in passively sensitized guinea pigs
Assay type: in vivo, guinea pig
Conditions: Cavia porcellus, po, 0.05 h, 60 min before antigen, 3 min after antigen; for inhibition in vivo at 0.38 mg/kg: 0.38 mg/kg p.o.; for inhibition in vivo at 0.75 mg/kg: 0.75 mg/kg p.o.
Description: Specifically, tests were run as follows: […] Equal volumes of saline solution of antigen (5 mg/ml) and Freund's complete adjuvant were emulsified and 0.15 ml injected into each hind foot of adult male guinea pigs (Davies and Johnson: Int. Arch. Allergy 41,648-654 (1971)). The animals were bled and the pooled serum stored at -20° C. Passive Sensitization Injections of 0.5 ml antiserum of 1:50 dilution were given i.v. 24-48 h before challenge. Guinea pigs were anaesthetized with phenobarbital sodium (40 mg/kg i.p.). Cannulae were tied into the trachea and the jugular vein and the lung inflated with a pump at a rate of 72 strokes/min and a constant stroke volume of 6-8 ml. Bronchospasm, provoked by injecting ovalbumin i.v. was measured as described by Konzett, H. and R. Rossler, "Versuchsanordnung su Untersuchungen an der Bronchialmuskulatur" Naunyn-Schmiedebergs, Arch. exp. Path. Pharmak. 195, 71-74 (1940) and modified by Collier, […] and M. Schachter: "The Bronchoconstrictor Action of Bradykinin in the Guinea-Pig" Brit. J. Pharmacol. 15, 290 (1960). The drugs were applied per os 60 minutes before the antigen. For calculation the following formula was used: % Bronchospasm (b-a)/(m-a)×100 b=Bronchospasm after antigen injection, measured in mm from tracing m=maximum height of tracing in mm with arm of the tracheacannula clamped a=pre injection height of the tracing in mm % inhibition of bronchospasm was calculated by comparing control groups with drug pretreated groups 3 minutes after antigen application.

Row | SMILES | inhibition in vivo at 0.38 mg/kg | inhibition in vivo at 0.75 mg/kg | also measured
1 | O=C(NC1CCN(CCCOc2ccc3c4c(c(=O)oc3c2)CCC4)CC1)c1ccc(F)cc1 [Example 2, 2,3-dihydro-7-{3-[4-(4-fluorobenzamido)-piperidino]-propoxy}-cyclopenta[c][1]benzopyran-4(1H)-one hydrochloride] | 67% | – | –
2 | Cc1ccccc1C(=O)NC1CCN(CCCOc2ccc3c4c(c(=O)oc3c2)CCC4)CC1 [Example 4, 2,3-dihydro-7-{3-[4-(2-methylbenzamido)-piperidino]-propoxy}-cyclopenta[c][1]benzopyran-4(1H)-one] | – | 76% | –
3 | O=C(NC1CCN(CCCOc2ccc3c4c(c(=O)oc3c2)CCCC4)CC1)c1ccc(F)cc1 [Example 17, 3-{3-[4-(4-fluorobenzamido)-piperidino]-propoxy}-7,8,9,10-tetrahydro-6H--dibenzo[b,d]pyran-6-one hydrochloride] | 58% | – | –
4 | Cc1ccccc1C(=O)NC1CCN(CCCOc2ccc3c4c(c(=O)oc3c2)CCCC4)CC1 [Example 21, 3-{3-[4-(2-methyl-benzamido)-piperidino]-propoxy}-7,8,9,10-tetrahydro-6H--dibenzo[b,d]pyran-6-one] | 51% | 78% | –
5 | COc1ccc(C(=O)NC2CCN(CCCOc3ccc4c5c(c(=O)oc4c3)CCCC5)CC2)cc1 [Example 18, 3-{3-[4-(4-methoxybenzamido)-piperidino]-propoxy}-7,8,9,10-tetrahydro-6H--dibenzo[b,d]-pyran-6-one] | 35% | 87% | –
6 | CC(=O)c1c(OCCCN2CCC(NC(=O)c3ccccc3)CC2)ccc2c3c(c(=O)oc12)CCC3 [Example 14, 6-acetyl-7-[3-(4-benzamido-piperidino)-propoxy]-2,3-dihydro-cyclopenta[c][1]benzopyran-4(1H)-one] | 79% | – | –
7 | O=C(Cc1ccccc1)NC1CCN(CCCOc2ccc3c4c(c(=O)oc3c2)CCC4)CC1 [Example 8, 2,3-dihydro-7-[3-(4-phenylacetamido-piperidino)-propoxy]-cyclopenta-[c][1]benzopyran-4(1H)-one] | – | 70% | –
8 | CC(C)(C)NCC(O)c1cc(O)cc(O)c1 (stereo not drawn) [Terbutalin, reference compound] | – | – | inhibition in vivo at 0.1 mg/kg (0.1 mg/kg p.o.): 12%; inhibition in vivo at 1 mg/kg (1.0 mg/kg p.o.): 52%
9 | O=C(NC1CCN(CCCOc2ccc3c4c(c(=O)oc3c2)CCC4)CC1)c1ccccc1 [Example 1, 7-[3-(4-Benzamidopiperidino)-propoxy]-2,3-dihydrocyclopenta[c][1]benzopyran-4(1H)one hydrochloride] | 47% | – | –
